Experiments:
BCRP = molecular target: T1, BCRP (Homo sapiens, UniProt Q9UNQ0); assay: In vitro transporter inhibition, BCRP; type: in vitro ADME
T1 sequence (Q9UNQ0 1-655): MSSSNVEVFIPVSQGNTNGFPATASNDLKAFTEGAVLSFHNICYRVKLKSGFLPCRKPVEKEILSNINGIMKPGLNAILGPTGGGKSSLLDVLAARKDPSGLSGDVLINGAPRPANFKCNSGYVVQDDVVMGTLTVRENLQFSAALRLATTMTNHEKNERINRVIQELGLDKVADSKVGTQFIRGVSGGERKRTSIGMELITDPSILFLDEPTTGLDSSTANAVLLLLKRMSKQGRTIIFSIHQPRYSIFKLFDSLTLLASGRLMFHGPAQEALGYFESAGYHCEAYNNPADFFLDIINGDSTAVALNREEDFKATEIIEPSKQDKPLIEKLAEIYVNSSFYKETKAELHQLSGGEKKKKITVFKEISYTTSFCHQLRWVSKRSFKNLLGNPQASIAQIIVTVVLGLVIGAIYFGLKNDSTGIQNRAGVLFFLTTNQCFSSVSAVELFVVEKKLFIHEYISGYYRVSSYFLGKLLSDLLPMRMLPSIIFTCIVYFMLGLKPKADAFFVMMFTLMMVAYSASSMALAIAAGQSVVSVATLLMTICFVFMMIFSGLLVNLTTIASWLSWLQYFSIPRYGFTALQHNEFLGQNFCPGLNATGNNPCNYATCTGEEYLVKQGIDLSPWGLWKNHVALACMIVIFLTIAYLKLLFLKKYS

[1] = system: biopsy-confirmed DIO-NASH mice; assay: DIO-GAN NASH mice: liver transcriptomics by RNAseq; type: in vivo, C57BL/6JRj mice; conditions: RNAseq at termination
Description: C57BL/6JRj male mice (n=138) were fed the Gubra Amylin NASH (GAN) diet (40% fat, 22% fructose, 2% cholesterol [D09100310, Research Diets]) or lean chow diet for 35 weeks before treatment start. Prior to treatment all animals underwent liver biopsy for histological confirmation (steatosis score ≥2 and fibrosis stage ≥1) and stratification using the nonalcoholic fatty liver disease (NAFLD) activity scoring (NAS) and fibrosis staging system. The diet-induced obese mice on GAN diet (DIO-GAN) were randomized to 8 treatment groups (Table 16) based on percent-area of picrosirius red (PSR) staining. […] Vehicle-dosed lean chow-fed controls served as healthy controls (n=10). Mice were maintained on their respective diets (GAN or lean chow) for the duration of the study. Within-subject comparisons (pre-vs. post-treatment) were performed for liver biopsy histopathological scores. Terminal quantitative endpoints included plasma/liver biochemistry, liver histomorphometry, and liver transcriptomic analysis by RNAseq.
Tissue was collected and snap-frozen in liquid nitrogen and stored at −80 C until processing. RNA was isolated using a NucleoSpin kit ([…]-NAGEL). […]

[2] = Multiple ascending dose trial: pharmacokinetics; type: in vivo, human
Description: A multiple-ascending dose clinical trial of Compound 1 was performed.
(See Table 5, FIG. 7.) PK parameters were estimated via noncompartmental methods using Phoenix® WinNonlin® (Certara, LP, Princeton, NJ). Concentrations of serum pharmacodynamic (PD) biomarkers apolipoprotein B (Apo B) and sex hormone binding globulin (SHBG) were measured using an immunoassay and serum lipids were determined using spectrophotometry.

[3] = pH and solubilizer effect on solubility; type: physicochemical
Description: Solubility of Compound 1 (potassium salt) was evaluated at various pH levels.

[4] = Pharmacokinetics of 50 mg capsules with or without SLS in beagle dogs; type: in vivo; conditions: 50 mg capsule with vs without 5 wt % SLS
mouse NASH model = assay: High fat diet + CCl4 mouse NASH model; type: in vivo, C57BL/6J mice
Description: C57BL/6J mice were fed a high fat diet for 10 weeks to induce obesity (>38 g BW). Obese mice were injected intraperitoneally (i.p.) twice a week for four weeks with 0.5 μl/g 25% CCl4 (formulated in olive oil) to induce fibrosis, and one group of normal BW mice were injected i.p. twice a week for four weeks with olive oil to serve as a healthy control. […] On CCl4 dosing days, CCl4 was administered at 4 hours post compound or vehicle dosing. On day 27, all animals were fasted for about 16 hours before terminal euthanasia. On day 28, all animals were sacrificed and various biological parameters were analyzed. Total body, liver, heart and brain weight were measured and changes in liver and heart weight were normalized using brain weight.
Liver samples were collected for whole transcriptome analysis by RNA sequencing (RNAseq). RNAseq library (n=5 per group) preparation and sequencing was performed using Illumina standard protocols. Alignment of sequencing reads was performed using STAR aligner software and read counts were estimated using RSEM. Differentially expressed genes (compared to vehicle-treated NASH control mice) were determined using EdgeR software. Gene ontology analysis was performed using Advaita software with fold-change and adjusted p-value cutoffs of >1.5 and <0.05, respectively. Gene ontologies were derived from the Gene Ontology Consortium database (2019 Apr. 26) (Ashburner et al., Gene ontology: Tool for the unification of biology. Nature Genetics 25(1): 25-9 (2000); Gene Ontology Consortium, Creating the Gene Ontology Resource: Design and Implementation. Genome Research 11: 1425-1433 (2001)).

[5] = Multiple ascending doses in healthy subjects with elevated LDL-c: safety; type: in vivo, human; conditions: 1, 3, 6 or 10 mg once daily for 14 days
Description: Objectives: Assess the overall safety and tolerability of multiple ascending doses of Compound 1 in healthy subjects with elevated LDL-c.
Primary Endpoints: Treatment-emergent adverse events (TEAEs), vital signs, clinical laboratory parameters, and electrocardiogram (ECG) monitoring.

BCS classification = type: physicochemical

Cn1cc(C(=O)O)c2ccc(C3CCC(OCc4c(-c5c(Cl)cccc5Cl)noc4C4CC4)CC3)cc21 (stereo not drawn) [Compound 2]
IC50 (BCRP): 4.39 µM
liver expression of Col1a1, Acta2, Lgals3 and CD146 relative to DIO-GAN vehicle control [1]: significantly reduced expression
liver expression of Scd1 [1]: reduced

N#Cc1nn(-c2cc(Cl)c(Oc3n[nH]c(=O)c4ccccc34)c(Cl)c2)c(=O)[nH]c1=O [Compound 1, 2-(3,5-dichloro-4-((4-oxo-3,4-dihydrophthalazin-1-yl)oxy)phenyl)-3,5-dioxo-2,3,4,5-tetrahydro-1,2,4-triazine-6-nitrile]
t1/2 ([2]; Day 14, 6 mg QD, N = 6, median): 15.8 h
oral bioavailability and PK variability ([2]; multiple doses): good oral bioavailability with low PK variability
aqueous solubility ([3]; even in the salt form): very low aqueous solubility
Solubility ([3]; pH 10.0 buffer, 24 h, with 2 wt % SLS, 25° C., potassium salt): 308.2 µg/mL
increase of exposure (Cmax, AUC) by formulation with 5 wt % SLS [4]: more than 70%
liver fibrosis (histology) (mouse NASH model; 3 and 10 mpk, 28 days): significantly reduced liver fibrosis
liver inflammation (histology) (mouse NASH model; 28 days): trend in inflammation reduction
liver steatosis (histology) (mouse NASH model; all doses tested, 28 days): significantly reduced steatosis at all doses tested
serum total cholesterol, triglycerides and ALT (mouse NASH model; all doses tested, 28 days): significantly reduced
expression of genes associated with collagen extracellular matrix and hepatic stellate cell activation (mouse NASH model; liver RNAseq vs NASH control mice): significant effect
liver/brain weight (mouse NASH model; orally once a day for 28 days): significantly reduced
total body weight or heart/brain weight (mouse NASH model; orally once a day for 28 days): no effect
steady state plasma AUC0-∞ sufficient to ensure efficacy (mouse NASH model; preclinical animal models): approximately 3,320 ng*hg/mL
ALT increase to ≥2×ULN [5]: No subject
free T4 [5]: Dose-dependent declines
safety and tolerability [5]: generally safe and well-tolerated
severity of AEs [5]: mild to moderate with no apparent dose relationship
BCS classification (BCS classification): BCS Class IV

— patent publication US20240293416A1, “TREATMENT OF LIVER DISORDERS WITH A THR-ß AGONIST” (Terns Pharmaceuticals, Inc., priority 2021, published 2024)
